The target of this assay is T1, SF9 affinity purified rat FPT (Rattus norvegicus, UniProt Q02293+Q04631).
T1 construct: made in house; host or cells: Sf9 insect cells
Description: PFT (FPT) inhibitory activity assay, radiolabeled farnesyl pyrophosphate and biotinyl peptide, streptavidin beads. The following applies: HEPES buffer pH 7.4, 30° C., 30 minutes; read-out: FTase IC50. The class given is biochemical. An outline of the steps: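 Rat FPT expressed in SF9 cells was incubated 30 minutes at 30° C. with compound (in 10% DMSO), radiolabeled farnesyl pyrophosphate and biotinylated peptide. Buffer: HEPES pH 7.4, ZnCl2 20 μM, MgCl2 and DTT 5 mM each, 0.1% PEG 8000, 5 mM potassium phosphate (also run without phosphate). Product captured on streptavidin beads in magnesium acetate/H3PO4 stop buffer.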

pIC50: −log10 of the molar value.

For orientation: pIC50 means the negative decadic logarithm of the IC50, by convention in mol/L. Turning to `O=C(NC1CC1)c1ccccc1SCc1c(O[C@H](Cn2ccnc2)c2ccccc2)ccc2c1CCCC2=O` [Compound 228, N-Cyclopropyl-2-{[(2-{[(1S)-2-(1H-imidazol-1-yl)-1-phenylethyl]oxy}-5-oxo-5,6,7,8-tetrahydro-1-naphthalenyl)methyl]sulfanyl}benzamide], the pIC50 is 9.70.
Consider `O=C(NCc1ccco1)c1ccc(S(=O)(=O)Cc2c(O[C@H](Cn3ccnc3)c3ccccc3)ccc3c2CCCC3=O)cc1` [Compound 229, N-(2-Furylmethyl)-4-{[(2-{[(1S)-2-(1H-imidazol-1-yl)-1-phenylethyl]oxy}-5-oxo-5,6,7,8-tetrahydro-1-naphthalenyl)methyl]sulfonyl}benzamide], for which the pIC50 was 9.26.
The figure for `O=C(NCc1ccco1)c1cccc(S(=O)(=O)Cc2c(O[C@H](Cn3ccnc3)c3ccccc3)ccc3c2CCCC3=O)c1` [Compound 230, N-(2-Furylmethyl)-3-{[(2-{[(1S)-2-(1H-imidazol-1-yl)-1-phenylethyl]oxy}-5-oxo-5,6,7,8-tetrahydro-1-naphthalenyl)methyl]sulfonyl}benzamide] is 9.70; for `O=C(NCc1ccco1)c1ccccc1S(=O)(=O)Cc1c(O[C@H](Cn2ccnc2)c2ccccc2)ccc2c1CCCC2=O` [Compound 231, N-(2-Furylmethyl)-2-{[(2-{[(1S)-2-(1H-imidazol-1-yl)-1-phenylethyl]oxy}-5-oxo-5,6,7,8-tetrahydro-1-naphthalenyl)methyl]sulfonyl}benzamide] it is 9.70; for `O=C(NC(CO)CO)c1ccccc1SCc1c(O[C@H](Cn2ccnc2)c2ccccc2)ccc2c1CCCC2=O` [Compound 232, N-[2-Hydroxy-1-(hydroxymethyl)ethyl]-2-{[(2-{[(1S)-2-(1H-imidazol-1-yl)-1-phenylethyl]oxy}-5-oxo-5,6,7,8-tetrahydro-1-naphthalenyl)methyl]sulfanyl}benzamide] it is 9.70.
`O=C(NC(CO)CO)c1ccc(SCc2c(O[C@H](Cn3ccnc3)c3ccccc3)ccc3c2CCCC3=O)cc1` [Compound 233, N-[2-Hydroxy-1-(hydroxymethyl)ethyl]-4-{[(2-{[(1S)-2-(1H-imidazol-1-yl)-1-phenylethyl]oxy}-5-oxo-5,6,7,8-tetrahydro-1-naphthalenyl)methyl]sulfanyl}benzamide]: the pIC50 was 9.35.
The same measure for `O=C(NC(CO)CO)c1cccc(SCc2c(O[C@H](Cn3ccnc3)c3ccccc3)ccc3c2CCCC3=O)c1` [Compound 234, N-[2-Hydroxy-1-(hydroxymethyl)ethyl]-3-{[(2-{[(1S)-2-(1H-imidazol-1-yl)-1-phenylethyl]oxy}-5-oxo-5,6,7,8-tetrahydro-1-naphthalenyl)methyl]sulfanyl}benzamide]: 9.60.
Take `O=C(NC(CO)CO)c1ccc(S(=O)(=O)Cc2c(O[C@H](Cn3ccnc3)c3ccccc3)ccc3c2CCCC3=O)cc1` [Compound 235, N-[2-Hydroxy-1-(hydroxymethyl)ethyl]-4-{[(2-{[(1S)-2-(1H-imidazol-1-yl)-1-phenylethyl]oxy}-5-oxo-5,6,7,8-tetrahydro-1-naphthalenyl)methyl]sulfonyl}benzamide]: the pIC50 was 7.82.
The same measure for `O=C(NC(CO)CO)c1cccc(S(=O)(=O)Cc2c(O[C@H](Cn3ccnc3)c3ccccc3)ccc3c2CCCC3=O)c1` [Compound 236, N-[2-Hydroxy-1-(hydroxymethyl)ethyl]-3-{[(2-{[(1S)-2-(1H-imidazol-1-yl)-1-phenylethyl]oxy}-5-oxo-5,6,7,8-tetrahydro-1-naphthalenyl)methyl]sulfonyl}benzamide]: 9.70.
The same measure for `O=C(NC(CO)CO)c1ccccc1S(=O)(=O)Cc1c(O[C@H](Cn2ccnc2)c2ccccc2)ccc2c1CCCC2=O` [Compound 237, N-[2-Hydroxy-1-(hydroxymethyl)ethyl]-2-{[(2-{[(1S)-2-(1H-imidazol-1-yl)-1-phenylethyl]oxy}-5-oxo-5,6,7,8-tetrahydro-1-naphthalenyl)methyl]sulfonyl}benzamide]: 9.55; for `O=C(NCc1ccco1)c1ccc(SCc2c(O[C@H](Cn3ccnc3)c3ccccc3)ccc3c2CCCC3=O)cc1` [Compound 238, N-(2-Furylmethyl)-4-{[(2-{[(1S)-2-(1H-imidazol-1-yl)-1-phenylethyl]oxy}-5-oxo-5,6,7,8-tetrahydro-1-naphthalenyl)methyl]sulfanyl}benzamide]: 9.70.
Take `O=C(NCc1ccco1)c1cccc(SCc2c(O[C@H](Cn3ccnc3)c3ccccc3)ccc3c2CCCC3=O)c1` [Compound 239, N-(2-Furylmethyl)-3-{[(2-{[(1S)-2-(1H-imidazol-1-yl)-1-phenylethyl]oxy}-5-oxo-5,6,7,8-tetrahydro-1-naphthalenyl)methyl]sulfanyl}benzamide]: the pIC50 was 9.52.
The figure for `O=C(NCc1ccco1)c1ccccc1SCc1c(O[C@H](Cn2ccnc2)c2ccccc2)ccc2c1CCCC2=O` [Compound 240, N-(2-Furylmethyl)-2-{[(2-{[(1S)-2-(1H-imidazol-1-yl)-1-phenylethyl]oxy}-5-oxo-5,6,7,8-tetrahydro-1-naphthalenyl)methyl]sulfanyl}benzamide] is 9.70.
Consider `CC[C@H](CO)NC(=O)c1ccc(S(=O)(=O)Cc2c(O[C@H](Cn3ccnc3)c3ccccc3)ccc3c2CCCC3=O)cc1` [Compound 241, N-[(1R)-1-(Hydroxymethyl)propyl]-4-{[(2-{[(1S)-2-(1H-imidazol-1-yl)-1-phenylethyl]oxy}-5-oxo-5,6,7,8-tetrahydro-1-naphthalenyl)methyl]sulfonyl}benzamide], for which the pIC50 was 9.59.
The figure for `CC[C@H](CO)NC(=O)c1cccc(S(=O)(=O)Cc2c(O[C@H](Cn3ccnc3)c3ccccc3)ccc3c2CCCC3=O)c1` [Compound 242, N-[(1R)-1-(Hydroxymethyl)propyl]-3-{[(2-{[(1S)-2-(1H-imidazol-1-yl)-1-phenylethyl]oxy}-5-oxo-5,6,7,8-tetrahydro-1-naphthalenyl)methyl]sulfonyl}benzamide] is 9.70; for `CC[C@H](CO)NC(=O)c1ccccc1S(=O)(=O)Cc1c(O[C@H](Cn2ccnc2)c2ccccc2)ccc2c1CCCC2=O` [Compound 243, N-[(1R)-1-(Hydroxymethyl)propyl]-2-{[(2-{[(1S)-2-(1H-imidazol-1-yl)-1-phenylethyl]oxy}-5-oxo-5,6,7,8-tetrahydro-1-naphthalenyl)methyl]sulfonyl}benzamide] it is 9.70; for `CC[C@H](CO)NC(=O)c1ccccc1SCc1c(O[C@H](Cn2ccnc2)c2ccccc2)ccc2c1CCCC2=O` [Compound 244, N-[(1R)-1-(Hydroxymethyl)propyl]-2-{[(2-{[(1S)-2-(1H-imidazol-1-yl)-1-phenylethyl]oxy}-5-oxo-5,6,7,8-tetrahydro-1-naphthalenyl)methyl]sulfanyl}benzamide] it is 9.70.
Turning to `CC[C@H](CO)NC(=O)c1ccc(SCc2c(O[C@H](Cn3ccnc3)c3ccccc3)ccc3c2CCCC3=O)cc1` [Compound 245, N-[(1R)-1-(Hydroxymethyl)propyl]-4-{[(2-{[(1S)-2-(1H-imidazol-1-yl)-1-phenylethyl]oxy}-5-oxo-5,6,7,8-tetrahydro-1-naphthalenyl)methyl]sulfanyl}benzamide], the pIC50 was 9.70.
For the compound `CC[C@H](CO)NC(=O)c1cccc(SCc2c(O[C@H](Cn3ccnc3)c3ccccc3)ccc3c2CCCC3=O)c1` [Compound 246, N-[(1R)-1-(Hydroxymethyl)propyl]-3-{[(2-{[(1S)-2-(1H-imidazol-1-yl)-1-phenylethyl]oxy}-5-oxo-5,6,7,8-tetrahydro-1-naphthalenyl)methyl]sulfanyl}benzamide], the negative-log IC50 (pIC50) was 9.70.
The same measure for `CC[C@H](C)CNC(=O)c1ccc(S(=O)(=O)Cc2c(O[C@H](Cn3ccnc3)c3ccccc3)ccc3c2CCCC3=O)cc1` [Compound 247, 4-{[(2-{[(1S)-2-(1H-Imidazol-1-yl)-1-phenylethyl]oxy}-5-oxo-5,6,7,8-tetrahydro-1-naphthalenyl)methyl]sulfonyl}-N-[(2S)-2-methylbutyl]benzamide]: 9.70; for `CC[C@H](C)CNC(=O)c1cccc(S(=O)(=O)Cc2c(O[C@H](Cn3ccnc3)c3ccccc3)ccc3c2CCCC3=O)c1` [Compound 248]: 9.70; for `CC[C@H](C)CNC(=O)c1ccccc1S(=O)(=O)Cc1c(O[C@H](Cn2ccnc2)c2ccccc2)ccc2c1CCCC2=O` [Compound 249]: 9.60.
The figure for `CC[C@H](C)CNC(=O)c1ccccc1SCc1c(O[C@H](Cn2ccnc2)c2ccccc2)ccc2c1CCCC2=O` [Compound 250, 2-{[(2-{[(1S)-2-(1H-Imidazol-1-yl)-1-phenylethyl]oxy}-5-oxo-5,6,7,8-tetrahydro-1-naphthalenyl)methyl]sulfanyl}-N-[(2S)-2-1-methylbutyl]benzamide] is 9.70; for `CC[C@H](C)CNC(=O)c1ccc(SCc2c(O[C@H](Cn3ccnc3)c3ccccc3)ccc3c2CCCC3=O)cc1` [Compound 251, 4-{[(2-{[(1S)-2-(1H-Imidazol-1-yl)-1-phenylethyl]oxy}-5-oxo-5,6,7,8-tetrahydro-1-naphthalenyl)methyl]sulfanyl}-N-[(2S)-2-methylbutyl]benzamide] it is 9.70; for `CC[C@H](C)CNC(=O)c1cccc(SCc2c(O[C@H](Cn3ccnc3)c3ccccc3)ccc3c2CCCC3=O)c1` [Compound 252, 3-{[(2-{[(1S)-2-(1H-Imidazol-1-yl)-1-phenylethyl]oxy}-5-oxo-5,6,7,8-tetrahydro-1-naphthalenyl)methyl]sulfanyl}-N-[(2S)-2-methylbutyl]benzamide] it is 9.70.
The same measure for `CC(O)CNC(=O)c1ccc(S(=O)(=O)Cc2c(O[C@H](Cn3ccnc3)c3ccccc3)ccc3c2CCCC3=O)cc1` (stereo partly drawn) [Compound 253, N-(2-Hydroxypropyl)-4-{[(2-{[(1S)-2-(1H-imidazol-1-yl)-1-phenylethyl]oxy}-5-oxo-5,6,7,8-tetrahydro-1-naphthalenyl)methyl]sulfonyl}benzamide]: 9.15.

The record behind these values is patent publication US6943183B2 (Pfizer Inc, priority 2000, dated 2005).
